Data set [1] in a line: Antioxidant activity, ORAC (Oxygen Radical Absorbance Capacity) test. It is filed as biochemical. How it is done: Antioxidant activity was measured using the ORAC (Oxygen Radical Absorbance Capacity) test.
The test was based on measuring the inhibition induced by an antioxidant on the loss of activity of a fluorescent indicator, in the presence of oxidants.
In practice, given a fluorescent indicator (fluorescein) which loses its fluorescence due to the action of an oxidising agent (AAPH), antioxidant activity was evaluated in terms of maintenance of the fluorescence of the indicator over time, due to the ability of the antioxidant to counteract the action of the oxidising agent.
Antioxidant activity was assessed by spectrofluorometric assay, measuring the decay of the fluorescence of the indicator over time (from 0 to 360 minutes). A measuring the fluorescence of the sodium fluorescein indicator was performed using a spectrofluorimeter at a wavelength of 515 nm.
Antioxidant activity is expressed as the antioxidant power in relation to Trolox® at the same concentration of the samples.

A short description of data set [2]: Solubility in buffered water at pH=7 after 24 hours (equilibrium). The conditions noted are these: pH 7, aqueous buffer, thermodynamic from solid.
Protocol: An excess of powder is added to buffered water at pH=7 until a precipitate is obtained.
The conditions of data set [3]: background statement; cited from earlier work.

The term solubility denotes the concentration that dissolves in the medium under given conditions. Read a high solubility as a readily soluble substance.

Values after ≈ are worked out from the molar mass of the structure shown.

On to `O=C(O)CCCCC1CCSS1` (stereo not drawn) [LIPOIC ACID (alone), lipoic acid], for which the Rel. antiox. activity in data set [1] (lipoic acid alone at equal concentration = 1) was 1. Turning to `O=c1c(-c2ccc(O)cc2)coc2cc(O)cc(O)c12` [GENISTEIN (alone), genistein], the Rel. antiox. activity in data set [1] (genistein alone at equal concentration = 1) is listed as 1. Also, the concentration in solution in data set [2] (solubility at 24 h) came to 10 µg/mL (≈ 37 µM). On to `CC1=C(/C=C/C(C)=C/C=C/C(C)=C/C=C/C=C(C)/C=C/C=C(C)/C=C/C2=C(C)C(=O)[C@@H](O)CC2(C)C)C(C)(C)C[C@H](O)C1=O` [ASTAXANTIN (alone), astaxantin], for which the Rel. antiox. activity in data set [1] (astaxantin alone at equal concentration = 1) was 1. For `Oc1ccc(C=Cc2cc(O)cc(O)c2)cc1` [RESVERATROL (alone), resveratrol], the concentration in solution in data set [2] (buffered water) (solubility at 24 h) was 150 µg/mL (≈ 657 µM). Take `COC1=C(OC)C(=O)C(C/C=C(\C)CC/C=C(\C)CC/C=C(\C)CC/C=C(\C)CC/C=C(\C)CC/C=C(\C)CC/C=C(\C)CC/C=C(\C)CC/C=C(\C)CCC=C(C)C)=C(C)C1=O` [UBIDECARENONE (alone), ubidecarenone]: the Relative antiox. activity in data set [1] (ubidecarenone alone at equal concentration = 1) is 1. For the same molecule, in data set [3], the “solubility in water or in aqueous environments” value was less than 100 µg/mL. The same molecule had a solubility at 24 h in data set [2] (buffered water) of 2 µg/mL (≈ 2.32 µM). Consider `CC(C)=CCC/C(C)=C/C=C/C(C)=C/C=C/C(C)=C/C=C/C=C(C)/C=C/C=C(C)/C=C/C=C(\C)CCC=C(C)C` [LYCOPENE (alone), lycopene], for which the Rel. antiox. activity in data set [1] (lycopene alone at equal concentration = 1) turned out to be 1.
